# From the supplement of paper PMC10307832
# Columns and labels:
# Assay in all cases: relative viability (nuclei count vs DMSO), 5 days (fraction); higher = more cells survive
# BAY61-3606 + AZD7762 = compound: COC1=C(C=C(C=C1)C2=CC3=NC=CN3C(=N2)NC4=C(C=CC=N4)C(=O)N)OC [BAY61-3606] + NC(=O)Nc1cc(-c2cccc(F)c2)sc1C(=O)N[C@H]1CCCNC1 [AZD7762] (partner 0.2 µM)
# How it was run: (§1)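 The day after seeding in 1536-well plates, lung cancer cell lines were treated by pin tool with a single drug, or with a fixed anchor-drug dose together with five library-drug doses (not always all listed) in √10 steps. After 5 days, a combined fix-and-stain solution (final 0.05% Triton X-100, 1% formaldehyde, 1 ug/ml Hoechst) was added. Nuclei counted on 4× images gave relative viability as treated counts over vehicle counts, reported as the median of duplicate plates.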
# BAY61-3606 + Tozasertib = compound: COC1=C(C=C(C=C1)C2=CC3=NC=CN3C(=N2)NC4=C(C=CC=N4)C(=O)N)OC [BAY61-3606] + Cc1cc(Nc2cc(N3CCN(C)CC3)nc(Sc3ccc(NC(=O)C4CC4)cc3)n2)n[nH]1 [Tozasertib] (partner 0.1 µM)
# How it was run: as §1
# BAY61-3606 + Pemetrexed = compound: COC1=C(C=C(C=C1)C2=CC3=NC=CN3C(=N2)NC4=C(C=CC=N4)C(=O)N)OC [BAY61-3606] + Nc1nc2[nH]cc(CCc3ccc(C(=O)N[C@@H](CCC(=O)O)C(=O)O)cc3)c2c(=O)[nH]1 [Pemetrexed] (partner 0.2 µM)
# How it was run: as §1
# Doxorubicin + Phenformin = compound: COc1cccc2c1C(=O)c1c(O)c3c(c(O)c1C2=O)C[C@@](O)(C(=O)CO)C[C@@H]3O[C@H]1C[C@H](N)[C@H](O)[C@H](C)O1 [Doxorubicin] + N=C(N)NC(=N)NCCc1ccccc1 [Phenformin] (partner 250 µM)
# How it was run: as §1
Cell Line,relative viability (BAY61-3606 + AZD7762; first compound 0.02 µM),relative viability (BAY61-3606 + AZD7762; first compound 0.06325 µM),relative viability (BAY61-3606 + AZD7762; first compound 0.2 µM),relative viability (BAY61-3606 + AZD7762; first compound 0.6325 µM),relative viability (BAY61-3606 + AZD7762; first compound 2 µM),relative viability (BAY61-3606 + Tozasertib; first compound 0.02 µM),relative viability (BAY61-3606 + Tozasertib; first compound 0.06325 µM),relative viability (BAY61-3606 + Tozasertib; first compound 0.2 µM),relative viability (BAY61-3606 + Tozasertib; first compound 0.6325 µM),relative viability (BAY61-3606 + Tozasertib; first compound 2 µM),relative viability (BAY61-3606 + Pemetrexed; first compound 0.02 µM),relative viability (BAY61-3606 + Pemetrexed; first compound 0.06325 µM),relative viability (BAY61-3606 + Pemetrexed; first compound 0.2 µM),relative viability (BAY61-3606 + Pemetrexed; first compound 0.6325 µM),relative viability (BAY61-3606 + Pemetrexed; first compound 2 µM),relative viability (Doxorubicin + Phenformin; first compound 0.001 µM),relative viability (Doxorubicin + Phenformin; first compound 0.003162 µM),relative viability (Doxorubicin + Phenformin; first compound 0.01 µM),relative viability (Doxorubicin + Phenformin; first compound 0.03162 µM),relative viability (Doxorubicin + Phenformin; first compound 0.1 µM)
201T,0.592,0.759,0.752,0.661,0.688,1,0.593,0.774,0.565,0.378,0.358,0.366,0.339,0.325,0.32,0.442,0.476,0.468,0.416,0.432
A549,,,,,,,,,,,,,,,,,0.142,0.149,0.137,0.0431
A-427,0.831,0.689,0.659,0.752,0.682,0.222,0.183,0.171,0.222,0.187,1.05,1.02,0.992,0.892,0.908,0.263,0.337,0.292,0.337,0.33
ABC-1,0.644,0.793,0.716,0.701,0.873,0.2,0.181,0.163,0.16,0.208,,,,,,0.223,0.161,0.206,0.188,0.156
BEN,0.78,0.637,0.672,0.694,0.808,0.489,0.494,0.648,0.673,0.465,0.959,0.627,0.727,0.748,0.724,0.251,0.231,0.278,0.256,0.283
CAL-12T,0.693,0.577,0.677,0.634,0.71,0.289,0.305,0.198,0.303,0.165,1.29,1.38,1.22,1.22,0.742,0.514,0.538,0.412,0.221,0.129
COR-L23,,,,,,0.203,0.133,0.148,0.14,0.117,0.198,0.203,0.2,0.202,0.195,0.422,0.501,0.43,0.224,0.131
COR-L 105,,,,,,0.349,0.334,0.339,0.36,0.244,1.24,1.13,1.11,0.994,0.968,0.57,0.533,0.434,0.295,0.286
ChaGo-K-1,0.943,0.904,0.9,0.847,0.841,0.237,0.21,0.232,0.22,0.223,0.265,0.268,0.253,0.265,0.253,0.438,0.522,0.503,0.363,0.223
EKVX,0.742,0.673,0.644,0.753,0.665,0.366,0.299,0.383,0.436,0.16,0.439,0.368,0.401,0.495,0.346,0.255,0.236,0.237,0.245,0.22
EMC-BAC-2,1.12,0.888,1.1,1.32,1.12,0.288,0.19,0.243,0.238,0.225,0.464,0.438,0.449,0.438,0.523,0.621,0.462,0.416,0.265,0.206
EPLC-272H,0.223,0.193,0.313,0.186,0.173,0.262,0.247,0.362,0.242,0.157,0.374,0.299,0.319,0.374,0.278,0.325,0.32,0.395,0.256,0.299
H3255,0.941,0.775,1.03,0.942,0.902,0.6,0.64,0.54,0.649,0.701,0.587,0.546,0.598,0.626,0.593,0.371,0.363,0.333,0.374,0.311
HARA,0.286,0.291,0.452,0.303,0.3,0.144,0.13,0.11,0.123,0.0865,0.25,0.253,0.236,0.221,0.238,0.424,0.616,0.444,0.409,0.439
HCC-15,1.31,0.919,1.29,1.25,1.16,0.29,0.194,0.222,0.2,0.149,0.235,0.216,0.233,0.213,0.204,,0.518,0.355,0.148,0.135
HCC-44,1.01,1.1,0.962,1.01,1.1,0.91,,0.832,0.533,0.327,0.613,0.692,0.682,0.659,0.651,0.207,0.244,0.341,0.151,0.162
HCC-78,0.645,0.51,0.652,0.487,0.674,0.499,0.317,0.312,0.415,0.28,0.864,0.951,0.868,0.889,0.825,0.778,0.768,0.659,0.706,0.625
